Assay results from patent US20150247179A1 (Les Laboratoires Servier, priority 2013, published 2015).
Read-outs that look alike come from different tables or passages of the source. One block for each compound: values may come before it.

Key:
[1] = system: CYP1A2
Method: (§1) Each active ingredient was incubated at 0.1 μM at 37° C. […] The reaction is initiated by addition of NADPH 1 mM. The incubation is monitored in kinetic form. At the incubation timepoints of 7 min, 17 min, 30 min and then 60 min, an incubation aliquot (100 μL) is sampled and the enzymatic reaction is stopped by adding to that aliquot a to volume of solvent (100 μL of methanol) which is placed in ice for 10 minutes.
(§2) At each incubation timepoint, the active ingredient is quantified by high-performance liquid chromatography (HPLC) coupled with mass spectrometry (MS).

[2] = molecular target: T1, CYP2B6 (Homo sapiens, UniProt P20813)
T1 sequence (P20813 1-491): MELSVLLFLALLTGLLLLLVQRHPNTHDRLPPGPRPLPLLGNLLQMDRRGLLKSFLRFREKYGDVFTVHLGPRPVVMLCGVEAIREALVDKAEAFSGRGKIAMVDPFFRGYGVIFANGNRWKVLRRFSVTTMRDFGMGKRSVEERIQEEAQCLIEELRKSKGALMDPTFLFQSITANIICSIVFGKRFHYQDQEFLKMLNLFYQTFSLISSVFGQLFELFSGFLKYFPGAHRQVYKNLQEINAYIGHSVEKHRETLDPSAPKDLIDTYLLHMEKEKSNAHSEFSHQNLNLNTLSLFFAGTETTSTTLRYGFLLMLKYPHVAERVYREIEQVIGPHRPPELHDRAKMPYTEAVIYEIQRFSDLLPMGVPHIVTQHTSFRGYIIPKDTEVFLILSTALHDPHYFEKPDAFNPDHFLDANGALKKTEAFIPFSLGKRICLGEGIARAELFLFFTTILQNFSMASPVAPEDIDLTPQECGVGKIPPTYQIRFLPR
Method: as §1, §2

[3] = molecular target: T2, CYP2D6 (Homo sapiens, UniProt P10635)
T2 sequence (P10635 whole entry): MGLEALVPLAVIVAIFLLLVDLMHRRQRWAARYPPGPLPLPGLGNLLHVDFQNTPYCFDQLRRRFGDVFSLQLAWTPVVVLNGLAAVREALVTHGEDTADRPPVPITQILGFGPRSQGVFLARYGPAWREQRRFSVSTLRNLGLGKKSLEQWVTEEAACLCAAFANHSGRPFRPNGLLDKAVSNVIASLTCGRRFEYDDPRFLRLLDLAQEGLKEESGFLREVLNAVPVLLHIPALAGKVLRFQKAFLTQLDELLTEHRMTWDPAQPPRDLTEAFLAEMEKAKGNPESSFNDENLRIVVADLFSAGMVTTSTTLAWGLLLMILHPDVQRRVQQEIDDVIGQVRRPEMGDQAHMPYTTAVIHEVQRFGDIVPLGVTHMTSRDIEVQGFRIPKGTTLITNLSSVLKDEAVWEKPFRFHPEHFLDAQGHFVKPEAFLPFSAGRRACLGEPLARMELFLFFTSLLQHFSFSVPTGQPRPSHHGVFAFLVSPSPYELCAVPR
Method: as §1, §2

[4] = human
Method: as §1, §2

[5] = molecular target: CYP2C9 (Homo sapiens, UniProt P11712)
Sequence of CYP2C9 (P11712 whole entry): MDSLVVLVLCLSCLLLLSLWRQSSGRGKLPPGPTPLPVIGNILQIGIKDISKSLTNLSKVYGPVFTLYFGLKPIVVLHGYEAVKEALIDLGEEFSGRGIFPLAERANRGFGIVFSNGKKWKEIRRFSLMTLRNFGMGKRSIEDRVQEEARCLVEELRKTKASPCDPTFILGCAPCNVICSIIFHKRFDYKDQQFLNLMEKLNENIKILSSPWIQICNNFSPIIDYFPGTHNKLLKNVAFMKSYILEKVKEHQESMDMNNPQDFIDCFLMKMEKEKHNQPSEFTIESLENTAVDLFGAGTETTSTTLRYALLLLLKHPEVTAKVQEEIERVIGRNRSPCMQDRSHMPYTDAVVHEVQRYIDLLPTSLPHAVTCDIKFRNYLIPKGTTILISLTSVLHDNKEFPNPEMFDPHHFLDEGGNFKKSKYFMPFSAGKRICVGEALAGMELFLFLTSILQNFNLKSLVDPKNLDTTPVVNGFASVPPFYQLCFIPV
Method: as §1, §2

[6] = molecular target: T3, CYP2C8 (Homo sapiens, UniProt P10632)
T3 sequence (P10632 1-490): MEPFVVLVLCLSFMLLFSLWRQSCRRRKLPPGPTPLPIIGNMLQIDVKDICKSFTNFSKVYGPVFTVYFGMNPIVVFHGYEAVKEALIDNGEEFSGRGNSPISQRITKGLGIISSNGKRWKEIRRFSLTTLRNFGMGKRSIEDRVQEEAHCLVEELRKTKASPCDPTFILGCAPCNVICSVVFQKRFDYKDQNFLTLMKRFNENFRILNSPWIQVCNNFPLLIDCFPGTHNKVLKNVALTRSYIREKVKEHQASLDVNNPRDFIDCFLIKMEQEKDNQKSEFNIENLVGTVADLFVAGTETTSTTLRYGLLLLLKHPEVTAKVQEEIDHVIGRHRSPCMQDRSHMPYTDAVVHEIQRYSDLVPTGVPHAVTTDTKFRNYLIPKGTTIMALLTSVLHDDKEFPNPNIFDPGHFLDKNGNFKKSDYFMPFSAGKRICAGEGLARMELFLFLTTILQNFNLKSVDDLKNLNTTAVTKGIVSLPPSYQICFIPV
Method: as §1, §2

[7] = molecular target: T4, CYP3A4 (Homo sapiens, UniProt P08684); settings: bortezomib 2 μM; human liver microsomes; cited from earlier work
Target sequence in this assay (P08684 whole entry): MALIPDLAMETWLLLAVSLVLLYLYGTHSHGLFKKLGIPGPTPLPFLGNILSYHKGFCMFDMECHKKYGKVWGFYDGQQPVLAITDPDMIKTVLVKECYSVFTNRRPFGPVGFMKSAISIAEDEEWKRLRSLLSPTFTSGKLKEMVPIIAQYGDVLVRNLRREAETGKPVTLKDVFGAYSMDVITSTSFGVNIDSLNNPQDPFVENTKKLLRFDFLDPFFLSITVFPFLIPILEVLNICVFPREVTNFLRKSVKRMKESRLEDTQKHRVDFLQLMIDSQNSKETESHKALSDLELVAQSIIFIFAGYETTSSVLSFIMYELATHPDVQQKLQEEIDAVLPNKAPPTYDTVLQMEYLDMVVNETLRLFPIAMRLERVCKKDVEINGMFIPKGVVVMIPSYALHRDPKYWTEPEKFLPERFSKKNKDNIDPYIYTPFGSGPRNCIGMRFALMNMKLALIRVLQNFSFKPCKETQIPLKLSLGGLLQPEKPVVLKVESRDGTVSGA

[8] = molecular target: T1, CYP2B6; settings: in a pool of human liver; cited from earlier work
[9] = molecular target: T4, CYP3A4
Method: as §1, §2
Target sequence in this assay (P08684 2-503): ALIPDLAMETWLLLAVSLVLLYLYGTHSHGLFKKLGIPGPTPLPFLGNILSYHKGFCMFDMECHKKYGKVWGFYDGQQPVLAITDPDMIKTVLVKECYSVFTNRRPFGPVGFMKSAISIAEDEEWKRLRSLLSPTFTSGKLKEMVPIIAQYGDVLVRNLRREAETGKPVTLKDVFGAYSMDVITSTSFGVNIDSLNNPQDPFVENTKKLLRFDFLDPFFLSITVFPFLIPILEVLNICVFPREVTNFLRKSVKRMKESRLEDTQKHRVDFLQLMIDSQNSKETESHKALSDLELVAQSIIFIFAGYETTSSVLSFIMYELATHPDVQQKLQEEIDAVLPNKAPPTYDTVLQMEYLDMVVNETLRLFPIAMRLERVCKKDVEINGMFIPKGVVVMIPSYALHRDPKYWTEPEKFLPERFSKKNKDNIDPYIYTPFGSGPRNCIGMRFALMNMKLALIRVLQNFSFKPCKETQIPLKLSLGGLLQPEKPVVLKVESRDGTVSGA

[10] = molecular target: T5, CYP2A6 (Homo sapiens, UniProt P11509); experiment: Percentage inhibition of coumarin hydroxylase activity in irreversibly inhibited human liver microsomes vs control batch; settings: probe coumarin
T5 sequence (P11509 1-494): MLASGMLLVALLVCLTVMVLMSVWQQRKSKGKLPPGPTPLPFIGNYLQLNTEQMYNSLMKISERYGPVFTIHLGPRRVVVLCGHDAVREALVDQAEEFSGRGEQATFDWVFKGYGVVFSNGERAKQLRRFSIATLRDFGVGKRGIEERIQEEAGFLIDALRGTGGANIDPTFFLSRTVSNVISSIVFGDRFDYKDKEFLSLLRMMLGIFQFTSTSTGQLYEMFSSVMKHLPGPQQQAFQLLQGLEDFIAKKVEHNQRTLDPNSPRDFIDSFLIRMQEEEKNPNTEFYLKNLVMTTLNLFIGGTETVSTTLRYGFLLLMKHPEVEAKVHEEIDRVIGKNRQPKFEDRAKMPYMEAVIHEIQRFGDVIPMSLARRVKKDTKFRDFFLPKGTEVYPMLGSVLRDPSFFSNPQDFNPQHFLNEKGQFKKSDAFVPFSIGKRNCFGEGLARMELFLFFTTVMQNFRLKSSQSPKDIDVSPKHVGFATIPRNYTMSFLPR

[11] = molecular target: T1, CYP2B6; experiment: Percentage inhibition of bupropion hydroxylase activity in irreversibly inhibited human liver microsomes vs control batch
[12] = molecular target: T2, CYP2D6; settings: mirtazapine 2.5 to 1000 μM; human recombinant enzyme model; cited from earlier work
[13] = molecular target: T4, CYP3A4; settings: mirtazapine 2.5 to 1000 μM; human recombinant enzyme model; cited from earlier work
Target sequence in this assay (P08684 whole entry): as the sequence (P08684 whole entry) above

[14] = molecular target: T4, CYP3A4; settings: healthy volunteer; ritonavir 600 mg; loperamide 16 mg; cited from earlier work
Target sequence in this assay (P08684 whole entry): as above

[15] = molecular target: T4, CYP3A4; settings: healthy volunteers; itraconazole 100 mg; loperamide 4 mg; cited from earlier work
Target sequence in this assay (P08684 whole entry): as above

[16] = molecular target: T2, CYP2D6; experiment: in vitro; settings: pH 7.4

Compound: CC(C)C[C@H](NC(=O)[C@H](Cc1ccccc1)NC(=O)c1cnccn1)B(O)O [bortezomib]
inhibition of intrinsic clearance = % involvement of CYP1A2 in the oxidative metabolism (kit of isolated microsomes) [1]: No significant inhibition | inhibition of intrinsic clearance = % involvement of CYP2B6 in the oxidative metabolism (kit of isolated microsomes) [2]: No significant inhibition | inhibition of intrinsic clearance = % involvement of CYP2D6 in the oxidative metabolism (kit of isolated microsomes) [3]: No significant inhibition | intrinsic clearance in the presence of control microsomes [4]: 6.9-11 ml/min/g of proteins | inhibition of intrinsic clearance = % involvement of CYP2C9 in the oxidative metabolism (kit of isolated microsomes) [5]: No significant inhibition | inhibition of intrinsic clearance = % involvement of CYP2C8 in the oxidative metabolism (kit of isolated microsomes) [6]: No significant inhibition | inhibition of metabolism by anti-CYP 3A4 monoclonal antibody = % involvement of CYP3A4, expected data (Uttamsingh et al.) [7]: 79%

Compound: S=P(N1CC1)(N1CC1)N1CC1 [Thiotepa]
inhibition at 30 min, 15 µM [10]: 64% | inhibition at 30 min, 15 µM ([11]; pH 7.4): 92%

Compound: CN(C)C(=O)C(CCN1CCC(O)(c2ccc(Cl)cc2)CC1)(c1ccccc1)c1ccccc1 [loperamide]
increase in exposure, factor [14]: 2.65 | increase in exposure, factor [15]: 3.8

Now from value to compound, other results behind:

inhibition of intrinsic clearance = % involvement of CYP3A4 in the oxidative metabolism (kit of isolated microsomes) [9]: No significant inhibition | intrinsic clearance in the presence of control microsomes [4]: 52.5-70.5 ml/min/g of proteins | inhibition of intrinsic clearance = % involvement of CYP2C9 in the oxidative metabolism (kit of isolated microsomes) [5]: No significant inhibition | inhibition of intrinsic clearance = % involvement of CYP2C8 in the oxidative metabolism (kit of isolated microsomes) [6]: No significant inhibition
Compound: CN[C@H]1CC[C@@H](c2ccc(Cl)c(Cl)c2)c2ccccc21 [sertraline]
% involvement of CYP2B6 in the metabolism, expected data (Obach et al.) [8]: 60%

inhibition of intrinsic clearance = % involvement of CYP2B6 in the oxidative metabolism (kit of isolated microsomes) [2]: No significant inhibition | intrinsic clearance in the presence of control microsomes [4]: 3.9-7.8 ml/min/g of proteins | inhibition of intrinsic clearance = % involvement of CYP2C9 in the oxidative metabolism (kit of isolated microsomes) [5]: No significant inhibition | inhibition of intrinsic clearance = % involvement of CYP2C8 in the oxidative metabolism (kit of isolated microsomes) [6]: No significant inhibition
Compound: CN1CCN2c3ncccc3Cc3ccccc3C2C1 (stereo not drawn) [mirtazapine]
% involvement of CYP2D6 in the metabolism, expected data (Störmer et al.) [12]: 39% | % involvement of CYP3A4 in the metabolism, expected data (Störmer et al.) [13]: 23%

inhibition at 30 min, 50 µM [16]: 96% | inhibition at 30 min, 50 µM ([11]; pooled human liver microsomes, pH 7.4, probe bupropion): 91%
Compound: Fc1ccc([C@@H]2CCNC[C@H]2COc2ccc3c(c2)OCO3)cc1 [Paroxetine]
